Reference: the NIST ThermoML archive (doi:10.1016/j.fluid.2010.04.008)

Settings: Liquid, Ebulliometric method (Recirculating still)

C1COCCN1 [tetrahydro-1,4-oxazine]
Settings | vapor or sublimation pressure [kPa]
356.46 K | 22.57
359.12 K | 24.96
361.7 K | 27.47
364.05 K | 30.02
366.23 K | 32.49
368.27 K | 34.95
370.28 K | 37.52
372.11 K | 40.01
373.84 K | 42.47
375.53 K | 45.01
377.1 K | 47.47
378.63 K | 49.95
380.12 K | 52.51
381.51 K | 54.94
382.87 K | 57.53
384.16 K | 59.98
385.48 K | 62.51
386.71 K | 65.04
387.9 K | 67.54
389.05 K | 69.99
390.19 K | 72.56
391.28 K | 75.03
392.32 K | 77.49
393.36 K | 80.02
394.38 K | 82.52
395.33 K | 85.07
396.32 K | 87.48
397.26 K | 90.03
398.15 K | 92.46
399.11 K | 95.07
399.93 K | 97.49
400.78 K | 100.01
401.24 K | 101.32
